Measurements: patent publication US12600741B2, “3-phenoxybenzoic acid-glucuronic acid conjugate, and preparation method and use thereof” (Shanxi Medical University, priority 2023, dated 2026)

Test: In vitro liver microsome experiment (glucuronidation with UDPGA, UPLC-MS/MS detection)
Assay type: in vitro ADME
Details: pooled human liver microsomes, alamethicin, 37° C., incubation 0 min and 6 h
Method: In Vitro Liver Microsome Experiment
Experimental group: 136 μL of 50 mM Tris buffer was added to a 1.5 mL centrifuge tube, added with 20 μL of 100 mM aqueous D-glucaro-1,4-lactone solution, 10 μL of 10 mM aqueous magnesium chloride (MgCl2) solution, 10 μL of 40 mg/mL pooled human liver microsomes, and 2 μL of 50 mg/mL alamethicin, respectively, and preincubated on ice for 15 min; 2 μL of 2 mg/mL substrate (3-PBA) was added, and preincubated with 100 mM uridine diphosphate glucuronic acid (UDPGA) solution for 5 min at 37° C.; 20 μL of preincubated UDPGA solution was added to the reaction system to start the reaction, and incubation proceeded. At 0 min and 6 h, 200 μL of glacial acetonitrile was added to the reaction system to terminate the reaction, respectively. The reaction system was vortexed for 1 min and centrifuged at 13,000 r/min for 10 min at 4° C. All supernatants were put in a test tube, nitrogen-blown at 37° C., and reconstituted with 200 μL of methanol. The samples were analyzed and detected by UPLC-MS/MS. The difference between the blank group and the experimental group was only that 3-PBA was not added, and the difference between the control group and the experimental group was only that UDPGA was not added. […]

Row | Compound | phase II metabolism (formation of glucuronic acid conjugate) detected by UPLC-MS/MS
1 | O=C(O)c1cccc(Oc2ccccc2)c1 [3-PBA, 3-phenoxybenzoic acid] | underwent phase II metabolic reaction
2 | CC1(C)Cc2cccc(O)c2O1 [carbofuran phenol] | carbofuran phenol-glucuronic acid conjugate was detected
